pIC50: −log10 of the molar value.
Key:
[1] = target: T1, MLLT1 (Homo sapiens, UniProt Q03111); assay: MLLT1 degradation assay in MV4-11 cells (JESS, 24 h); assay type: cell-based; design: endogenous in cells; host or cells: MV4-11 (ATCC CRL-9591); conditions: vs DMSO control
T1 sequence (Q03111 1-559): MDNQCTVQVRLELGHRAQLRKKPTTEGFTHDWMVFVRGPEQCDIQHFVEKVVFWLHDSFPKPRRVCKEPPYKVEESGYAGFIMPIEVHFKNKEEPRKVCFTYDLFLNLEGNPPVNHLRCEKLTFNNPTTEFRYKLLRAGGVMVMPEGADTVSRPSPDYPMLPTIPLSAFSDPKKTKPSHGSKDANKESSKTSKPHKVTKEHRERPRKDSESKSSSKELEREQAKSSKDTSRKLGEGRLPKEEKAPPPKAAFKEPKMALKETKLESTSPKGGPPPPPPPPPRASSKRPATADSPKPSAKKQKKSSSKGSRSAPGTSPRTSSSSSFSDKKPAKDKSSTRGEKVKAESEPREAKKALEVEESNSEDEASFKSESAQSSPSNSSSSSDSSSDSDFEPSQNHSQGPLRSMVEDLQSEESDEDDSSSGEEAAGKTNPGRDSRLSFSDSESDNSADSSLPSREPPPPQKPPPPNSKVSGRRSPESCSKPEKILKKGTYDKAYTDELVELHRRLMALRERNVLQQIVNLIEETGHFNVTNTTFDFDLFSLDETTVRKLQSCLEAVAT
Summary of the method: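 MV4-11 cells treated at 1000, 100 and 10 nM (0.1% DMSO) for 24 h at 37° C; lysates (4 ug protein) run on JESS capillary immunoassay with MLLT1 and GAPDH antibodies. Peak areas give % degradation versus DMSO, binned A (≥75%) to D (<25%).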

[2] = system: MV4-11 cells; assay: MV4-11 cellular proliferative assay, Assay Format B (CTG 2.0, 168 h); assay type: cell-based; conditions: Homo sapiens, Assay format B, 168 h, read-out: IC50 (MV4-11 cellular proliferative assay)
Procedure: MV4-11 cells at a confluency of ~50-80% was used for cell growth assay. 600 cells/well in a 384-well opaque cell culture plate (6007680; Perkin Elmer) were seeded in 40 μL of complete medium (IMDM+10% FBS+1× Penicillin-Streptomycin). Cells were incubated overnight at 37° C., 5% CO2. 10 mM DMSO stocks were prepared, cells were treated with 10 concentrations of test compounds starting from 1 uM or 100 nM, 3-fold dilution in 10 uL (5× concentration) of complete medium. Final DMSO concentration was 0.3%. Culture plates were centrifuged at 40×g, 30s. Cells were incubated with compounds for 168 h (7 days). After 7 days, 20 uL CTG 2.0 reagent (G9242; Promega) was added per well and luminescence reading was taken in Envision Xcite 2105 multimode plate reader. Data was analyzed in GraphPad Prism 10.0 and data was shown as % viability with respect to DMSO control and dose-response curves were generated using four parameter logistic regression. Assay quality was determined by z-factor calculation using positive and negative controls.

Row | MLLT1% Degradation @ 0.01 μM [1] | MLLT1% Degradation @ 0.1 μM [1] | MLLT1% Degradation @ 1 μM [1] | pIC50 [2] | SMILES
1 | A (Category A: A≥75% degradation) | A (Category A: A≥75% degradation) | A (Category A: A≥75% degradation) | > 7.00 | Cc1c([C@H]2CCCN2C)[nH]c2cc(NC(=O)c3ccc4c(C)nn(CCCCCCCC#Cc5cccc6c5CN(C5CCC(=O)NC5=O)C6=O)c4c3)ncc12 (stereo partly drawn) [Example 57, 1-(9-(2-(2,6-dioxopiperidin-3-yl)-1-oxoisoindolin-4-yl)non-8-yn-1-yl)-3-methyl-N-(3-methyl-2-((R)-1-methylpyrrolidin-2-yl)-1H-pyrrolo[3,2-c]pyridin-6-yl)-1H-indazole-6-carboxamide]
2 | A (Category A: A≥75% degradation) | A (Category A: A≥75% degradation) | A (Category A: A≥75% degradation) | > 7.00 | Cc1nn(CCCCCCCC#Cc2cccc3c2CN(C2CCC(=O)NC2=O)C3=O)c2cc(C(=O)Nc3cc4[nH]c([C@H]5CCCN5C)cc4cn3)c(F)cc12 (stereo partly drawn) [Example 58, 1-(9-(2-(2,6-dioxopiperidin-3-yl)-1-oxoisoindolin-4-yl)non-8-yn-1-yl)-5-fluoro-3-methyl-N-(2-((R)-1-methylpyrrolidin-2-yl)-1H-pyrrolo[3,2-c]pyridin-6-yl)-1H-indazole-6-carboxamide]
3 | A (Category A: A≥75% degradation) | A (Category A: A≥75% degradation) | A (Category A: A≥75% degradation) | > 7.00 | CN1CCC[C@@H]1c1cc2cnc(NC(=O)c3ccc4c(C5CC5)nn(CCCCCCCC#Cc5cccc6c5CN(C5CCC(=O)NC5=O)C6=O)c4c3)cc2[nH]1 (stereo partly drawn) [Example 59, 3-cyclopropyl-1-(9-(2-(2,6-dioxopiperidin-3-yl)-1-oxoisoindolin-4-yl)non-8-yn-1-yl)-N-(2-((R)-1-methylpyrrolidin-2-yl)-1H-pyrrolo [3,2-c]pyridin-6-yl)-1H-indazole-6-carboxamide]
4 | C (Category C: 25%≤C<50% degradation) | A (Category A: A≥75% degradation) | A (Category A: A≥75% degradation) | > 7.00 | Cc1nn(CCCCCCCC#Cc2cccc(C3CCC(=O)NC3=O)c2F)c2cc(C(=O)Nc3cc4[nH]c([C@H]5CCCN5C)cc4cn3)ccc12 (stereo partly drawn) [Example 61, 1-(9-(3-(2,6-dioxopiperidin-3-yl)-2-fluorophenyl)non-8-yn-1-yl)-3-methyl-N-(2-((R)-1-methylpyrrolidin-2-yl)-1H-pyrrolo [3,2-c]pyridin-6-yl)-1H-indazole-6-carboxamide]
5 | A (Category A: A≥75% degradation) | A (Category A: A≥75% degradation) | A (Category A: A≥75% degradation) | > 7.00 | Cc1nn(CCCCCCCC#Cc2cccc3c2CN(C2CCC(=O)NC2=O)C3=O)c2cc(C(=O)Nc3cc4[nH]c([C@H]5CCCN5C)c(C#N)c4cn3)ccc12 (stereo partly drawn) [Example 66, N-(3-cyano-2-((R)-1-methylpyrrolidin-2-yl)-1H-pyrrolo[3,2-c]pyridin-6-yl)-1-(9-(2-(2,6-dioxopiperidin-3-yl)-1-oxoisoindolin-4-yl)non-8-yn-1-yl)-3-methyl-1H-indazole-6-carboxamide]
6 | A (Category A: A≥75% degradation) | A (Category A: A≥75% degradation) | A (Category A: A≥75% degradation) | > 7.00 | Cc1nn(CCCCCCCC#Cc2ccc(F)c3c2CN(C2CCC(=O)NC2=O)C3=O)c2cc(C(=O)Nc3cc4[nH]c([C@H]5CCCN5C)c(Cl)c4cn3)ccc12 (stereo partly drawn) [Example 67, N-(3-chloro-2-((R)-1-methylpyrrolidin-2-yl)-1H-pyrrolo[3,2-c]pyridin-6-yl)-1-(9-(2-(2,6-dioxopiperidin-3-yl)-7-fluoro-1-oxoisoindolin-4-yl)non-8-yn-1-yl)-3-methyl-1H-indazole-6-carboxamide]
7 | A (Category A: A≥75% degradation) | A (Category A: A≥75% degradation) | B (Category B: 50%≤B<75% degradation) | > 7.00 | Cc1nn(C2CCN(CC#Cc3cccc4c3CN(C3CCC(=O)NC3=O)C4=O)CC2)c2cc(C(=O)Nc3cc4[nH]c([C@H]5CCCN5C)cc4cn3)ccc12 (stereo partly drawn) [Example 68, 1-(1-(3-(2-(2,6-dioxopiperidin-3-yl)-1-oxoisoindolin-4-yl)prop-2-yn-1-yl)piperidin-4-yl)-3-methyl-N-(2-((R)-1-methylpyrrolidin-2-yl)-1H-pyrrolo[3,2-c]pyridin-6-yl)-1H-indazole-6-carboxamide]
8 | A (Category A: A≥75% degradation) | A (Category A: A≥75% degradation) | A (Category A: A≥75% degradation) | > 7.00 | Cc1nn(C2CCN(CC3CCN(c4cc5c(cc4F)C(=O)N(C4CCC(=O)NC4=O)C5=O)CC3)CC2)c2cc(C(=O)Nc3cc4[nH]c([C@H]5CCCN5C)cc4cn3)ccc12 (stereo partly drawn) [Example 69, 1-(1-((1-(2-(2,6-dioxopiperidin-3-yl)-6-fluoro-1,3-dioxoisoindolin-5-yl)piperidin-4-yl)methyl)piperidin-4-yl)-3-methyl-N-(2-((R)-1-methylpyrrolidin-2-yl)-1H-pyrrolo[3,2-c]pyridin-6-yl)-1H-indazole-6-carboxamide]
9 | A (Category A: A≥75% degradation) | A (Category A: A≥75% degradation) | A (Category A: A≥75% degradation) | > 7.00 | Cc1nn(C2CCN(CC3CCN(c4ccc5c(c4)C(=O)N(C4CCC(=O)NC4=O)C5=O)CC3)CC2)c2cc(C(=O)Nc3cc4[nH]c([C@H]5CCCN5C)cc4cn3)ccc12 (stereo partly drawn) [Example 70, 1-(1-((1-(2-(2,6-dioxopiperidin-3-yl)-1,3-dioxoisoindolin-5-yl)piperidin-4-yl)methyl)piperidin-4-yl)-3-methyl-N-(2-((R)-1-methylpyrrolidin-2-yl)-1H-pyrrolo[3,2-c]pyridin-6-yl)-1H-indazole-6-carboxamide]
10 | B (Category B: 50%≤B<75% degradation) | A (Category A: A≥75% degradation) | A (Category A: A≥75% degradation) | > 7.00 | Cc1nn(C2CCN(CC3CCN(c4cccc5c4C(=O)N(C4CCC(=O)NC4=O)C5=O)CC3)CC2)c2cc(C(=O)Nc3cc4[nH]c([C@H]5CCCN5C)cc4cn3)ccc12 (stereo partly drawn) [Example 71, 1-(1-((1-(2-(2,6-dioxopiperidin-3-yl)-1,3-dioxoisoindolin-4-yl)piperidin-4-yl)methyl)piperidin-4-yl)-3-methyl-N-(2-((R)-1-methylpyrrolidin-2-yl)-1H-pyrrolo[3,2-c]pyridin-6-yl)-1H-indazole-6-carboxamide]
11 | A (Category A: A≥75% degradation) | A (Category A: A≥75% degradation) | B (Category B: 50%≤B<75% degradation) | > 7.00 | Cc1nn(CC#Cc2cccc3c2CN(C2CCC(=O)NC2=O)C3=O)c2cc(C(=O)Nc3cc4[nH]c([C@H]5CCCN5C)cc4cn3)ccc12 (stereo partly drawn) [Example 72, 1-(3-(2-(2,6-dioxopiperidin-3-yl)-1-oxoisoindolin-4-yl)prop-2-yn-1-yl)-3-methyl-N-(2-((R)-1-methylpyrrolidin-2-yl)-1H-pyrrolo[3,2-c]pyridin-6-yl)-1H-indazole-6-carboxamide]
12 | B (Category B: 50%≤B<75% degradation) | B (Category B: 50%≤B<75% degradation) | A (Category A: A≥75% degradation) | > 7.00 | Cc1nn(C2CCC(CCCC#Cc3cccc4c3CN(C3CCC(=O)NC3=O)C4=O)CC2)c2cc(C(=O)Nc3cc4[nH]c([C@H]5CCCN5C)cc4cn3)ccc12 (stereo partly drawn) [Example 74, 1-(4-(5-(2-(2,6-dioxopiperidin-3-yl)-1-oxoisoindolin-4-yl)pent-4-yn-1-yl)cyclohexyl)-3-methyl-N-(2-((R)-1-methylpyrrolidin-2-yl)-1H-pyrrolo[3,2-c]pyridin-6-yl)-1H-indazole-6-carboxamide]

Source: patent US20260199484A1, “PROTAC DEGRADERS OF MLLT1 AND/OR MLLT3” (DARK BLUE THERAPEUTICS LTD, priority 2024, published 2026)
